Test results as given in patent US20050004011A1, “Compositions and methods for treating bacterial infections with protein-dalbavancin complexes” (priority 2002, published 2005).

Experiments:
human albumin = human albumin (Homo sapiens, UniProt P02768); experiment: Protein binding by isothermal titration microcalorimetry
Protocol: Integrated heat effects, after correction for heats of dilution, were analyzed by non-linear regression using a simple single-site binding model with the standard Microcal ORIGIN software package. Raw data (μcal/sec) for each injection were integrated to give the total heat effect per addition, then divided by amount of injectant to give kcal/mole of injectant. The same integration was applied for control dilution effects, and this was subtracted from the actual titration data. This provided a differential of the binding curve in which the extent of binding is proportional to the total heat liberated (or absorbed). This was then analyzed by non-linear regression methods in terms of various standard binding models.

Rat mass balance study = type: in vivo, Sprague-Dawley rats
Protocol: Mass balance studies were conducted to determine the excretion pattern of dalbavancin following a single intravenous (IV) infusion of dalbavancin in male rats.
Water and methanol cage washes were also collected.

HSA = HSA (Homo sapiens, UniProt P02768); experiment: MALDI-TOF mass spectrometry of protein-dalbavancin complexes; type: binding; details: very high dalbavancin:protein ratios (1:2, 1:10)
HSA, sequence (P02768 25-609): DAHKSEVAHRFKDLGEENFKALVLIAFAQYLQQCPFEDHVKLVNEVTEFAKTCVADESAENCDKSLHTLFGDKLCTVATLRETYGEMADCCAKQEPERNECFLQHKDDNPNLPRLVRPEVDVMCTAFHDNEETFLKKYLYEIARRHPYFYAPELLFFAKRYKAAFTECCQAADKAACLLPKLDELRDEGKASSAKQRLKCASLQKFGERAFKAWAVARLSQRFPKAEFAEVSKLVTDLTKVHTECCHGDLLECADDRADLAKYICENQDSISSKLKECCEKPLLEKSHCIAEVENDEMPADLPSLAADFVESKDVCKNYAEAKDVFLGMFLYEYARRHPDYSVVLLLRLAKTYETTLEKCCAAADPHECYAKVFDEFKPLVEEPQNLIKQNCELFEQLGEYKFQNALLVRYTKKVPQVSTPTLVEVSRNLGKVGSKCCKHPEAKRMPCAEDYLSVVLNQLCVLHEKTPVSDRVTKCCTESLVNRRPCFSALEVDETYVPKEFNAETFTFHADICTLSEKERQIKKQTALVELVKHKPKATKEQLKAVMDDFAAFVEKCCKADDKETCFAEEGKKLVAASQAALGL
Protocol: The samples were prepared for analysis using the dried droplet technique. Spectra were obtained on a BRUKER FLEX III, tof mass spectrometer previously tuned and calibrated using standard bovine serum albumin, acquiring and averaging spectra generated by 200 laser shots. Matrix: 9 parts of DHB-9 (2,5-dihydroxy-benzoic acid) saturated in acetonitrile/H2O (50:50), 1 part of sinapinic acid saturated in acetonitrile/H2O (50:50). 0.5 μl of sample solution and 0.5 μl of matrix solution were mixed and placed on the laser target. [00179]

Streptococcus pyogenes = experiment: Dalbavancin MIC of baseline isolates; type: cell-based
[1] = Safety assessments in healthy subjects; type: in vivo, human; details: single 1000 mg IV
Protocol: Adverse events were recorded and assessed for severity and relationship to study drug. Laboratory data (chemistry panel, CBC with differential, urinalysis) were collected and assessed for changes from baseline and out-of-range values. ECG, physical examination, and vital signs were obtained, and changes from baseline were assessed.

[2] = tested on: Miscellaneous Streptococcus and nontypeable strains; experiment: Dalbavancin MIC of baseline isolates; type: cell-based
[3] = MITT isolates of standard of care group
[4] = MITT isolates of two-dose group

human albumin, sequence (P02768 25-609): as above

CN[C@H]1C(=O)N[C@@H]2Cc3ccc(cc3)Oc3cc4cc(c3O[C@@H]3O[C@H](C(=O)O)[C@@H](O)[C@H](O)[C@H]3NC(=O)CCCCCCCCC(C)C)Oc3ccc(cc3Cl)[C@@H](O)[C@@H]3NC(=O)[C@H](NC(=O)[C@@H]4NC(=O)[C@@H](NC2=O)c2cc(cc(O)c2Cl)Oc2cc1ccc2O)c1ccc(O)c(c1)-c1c(O[C@H]2O[C@H](CO)[C@@H](O)[C@H](O)[C@@H]2O)cc(O)cc1[C@@H](C(=O)NCCCN(C)C)NC3=O [Dalbavancin]
binding stoichiometry modeling (drug:protein) (human albumin): two dalbavancin molecules are bound to one molecule of protein
Calculated percent binding (human albumin; antibiotic 500 μM, human serum albumin 6×10^−4 M): 98.0%
N (binding stoichiometry, protein to dalbavancin) (human albumin; in all cases (all proteins)): < 1
dose remaining in the carcass (Rat mass balance study; 70 days post dose): 4.5%
plasma t1/2 (Rat mass balance study; rat): approximately 1 week
share of excreted radioactivity eliminated in feces (Rat mass balance study; single IV 20 mg/kg, male rats): ⅓
share of excreted radioactivity eliminated in urine (Rat mass balance study; single IV 20 mg/kg, male rats): ⅔
administered radioactivity eliminated in urine and feces (Rat mass balance study; within the first week): Approximately half
complex with HSA observed by MALDI-TOF (HSA): 2 molecules of dalbavancin per protein molecule
Dalbavancin MIC (Streptococcus pyogenes; [3]): (0.016) mg/L
Dalbavancin MIC (Streptococcus pyogenes; [4]): (0.016) mg/L
Subject deaths or serious adverse events [1]: No subject deaths or serious adverse events
Tolerability [1]: well-tolerated
Volunteers reporting AEs possibly related to study medication ([1]; six subjects): Three
Dalbavancin MIC ([2]; MITT isolates of single-dose group): (0.016) mg/L
Dalbavancin MIC [2, 3]: (0.016) mg/L
Dalbavancin MIC [2, 4]: (0.016) mg/L
